Measurements taken from paper PMC11978679, “Pyrazolyl amide-chalcones conjugates: Synthesis and antikinetoplastid activity” (Naunyn-Schmiedeberg's Archives of Pharmacology, 2024).
Like-named read-outs stand apart in the source and are kept apart here.

Legend:
[1] = test system: human lung fibroblasts (MRC-5); assay: In vitro cytotoxicity assay, MRC-5SV2 cells (resazurin); type: cell-based; conditions: for IC50: Homo sapiens, MRC5, 72 h, cytotoxicity, lung fibroblast, 3 days
Experimental: (§1) Briefly, 1.5 × 10^5 cells/mL cells were cultured with compound dilutions at 37 °C and with 5% CO2. Cell growth was compared to untreated-control wells (100% cell growth) and medium-control wells (0% cell growth). After 3 days incubation, cell viability was assessed fluorometrically after addition of 50 μL resazurin per well. […] The results were expressed as % reduction in cell growth/viability compared to control wells and an IC50 value was determined.

[2] = test system: primary mouse macrophages (PMMs); assay: In vitro cytotoxicity against primary mouse macrophages; type: cell-based; conditions: for IC50: Macrophage, cytotoxicity, primary mouse macrophages
[3] = test system: Trypanosoma brucei brucei (blood stream trypomastigotes); assay: Drug susceptibility resazurin assay, T. b. brucei; conditions: 72 h, read-out: IC50 T. b. brucei
[4] = test system: Trypanosoma brucei rhodesiense (blood stream trypomastigotes); assay: Drug susceptibility resazurin assay, T. b. rhodesiense; conditions: 72 h, read-out: IC50 T. b. rhodesiense
[5] = test system: Trypanosoma cruzi (intracellular amastigotes); assay: In vitro anti-parasitic assay, T. cruzi (β-galactosidase/CPRG readout); conditions: TULAHUEN, MRC-5 SV2, read-out: IC50 T. cruzi
[6] = test system: Leishmania infantum (intracellular amastigotes); assay: In vitro anti-Leishmania assay in primary peritoneal mouse macrophages (Giemsa, microscopy); conditions: Macrophage, 120 h, read-out: IC50 L. infantum
[7] = test system: L. panamensis; set-up: method as in García et al. [2018]; conditions: ref García et al. [2018]; read-out: EC50 against L. panamensis; cited from earlier work
[8] = test system: T. cruzi; set-up: method as in García et al. [2018]; conditions: ref García et al. [2018]; read-out: EC50 against T. cruzi; cited from earlier work
[9] = In vitro cytotoxicity assay, MRC-5SV2 cells (resazurin); type: cell-based, human; conditions: human, MRC-5SV2 cells (human lung fibroblasts); cytotoxicity; read-out: CC50 against MRC-5
Experimental: as §1

[10] = test system: T. cruzi, T. b. brucei, T. b. rhodesiense and L. infantum; assay: Antikinetoplastid activity, whole panel, verdict in words; conditions: compounds lacking the chalcone moiety
[11] = test system: T. b. rhodesiense; set-up: method as in Agarwal et al. [2024]; conditions: imidazo[1,2-a]pyridine-chalcones; ref Agarwal et al. [2024]; read-out: IC50 against T. b. rhodesiense; cited from earlier work
[12] = test system: T. b. rhodesiense; set-up: method as in Bhambra et al. [2017]; conditions: ref Bhambra et al. [2017]; read-out: IC50 against T. b. rhodesiense; cited from earlier work
[13] = test system: promastigotes of L. aethiopica; conditions: cited from earlier work
[14] = test system: amastigotes of L. aethiopica; set-up: method as in Bekhit et al. [2015]; conditions: ref Bekhit et al. [2015]; cited from earlier work
[15] = test system: L. amazonensis; set-up: method as in Bernardino et al. [2006]; conditions: ref Bernardino et al. [2006]; read-out: IC50 against L. amazonensis; cited from earlier work

SMILES | IC50 [1] [µM] | IC50 [2] [µM] | IC50 [3] [µM] | IC50 [4] [µM] | IC50 [5] [µM] | IC50 [6] [µM] | further results
O=C(/C=C/c1cccc(F)c1)c1ccc(NC(=O)c2cn(-c3ccccc3)nc2-c2ccccc2)cc1 [Compound 9h, (E)-N-(4-(3-(3-fluorophenyl)acryloyl)phenyl)-1,3-diphenyl-1H-pyrazole-4-carboxamide] | 24.8 | > 48 | 6.36 ± 0.11 | 1.56 ± 0.11 | > 64 | 21 ± 11 | –
CC(CCCCCCC[n+]1ccn(C)c1)Oc1ccc(C(=O)/C=C/c2ccco2)cc1 (stereo not drawn) [V] | – | – | – | – | – | – | EC50 [7]: 0.78 µM; EC50 [8]: 0.66 µM
O=C(/C=C/c1cccc(Cl)c1)c1ccc(NC(=O)c2cn(-c3ccccc3)nc2-c2ccccc2)cc1 [Compound 9g, (E)-N-(4-(3-(3-chlorophenyl)acryloyl)phenyl)-1,3-diphenyl-1H-pyrazole-4-carboxamide] | 6.2 | – | – | – | – | – | CC50 at 3 days [9]: 6.2 µM
O=C(/C=C/c1ccc(Br)cc1)c1ccc(NC(=O)c2cn(-c3ccccc3)nc2-c2ccccc2)cc1 [Compound 9e, (E)-N-(4-(3-(4-bromophenyl)acryloyl)phenyl)-1,3-diphenyl-1H-pyrazole-4-carboxamide] | 34.9 | > 64 | 1.13 ± 0.63 | 1.37 ± 0.02 | > 64 | > 46.8 | –
O=C(/C=C/c1cccs1)c1ccc(NC(=O)c2cn(-c3ccccc3)nc2-c2ccccc2)cc1 [Compound 9l, (E)-1,3-diphenyl-N-(4-(3-(thiophen-2-yl)acryloyl)phenyl)-1H-pyrazole-4-carboxamide] | 39.2 | > 64 | 13.2 ± 19 | 2.7 ± 0.03 | > 64 | > 53.5 | melting point: 210 to 211 °C
Cc1ccc(C(=O)Nc2ccc(S(=O)(=O)O)c3cc(S(=O)(=O)O)cc(S(=O)(=O)O)c23)cc1NC(=O)c1cccc(NC(=O)Nc2cccc(C(=O)Nc3cc(C(=O)Nc4ccc(S(=O)(=O)O)c5cc(S(=O)(=O)O)cc(S(=O)(=O)O)c45)ccc3C)c2)c1 [Suramine, reference compound] | – | – | 0.04 | 0.05 | – | – | –
O=C(O)c1cn(-c2ccccc2)nc1-c1ccccc1 [Compound 5, 1,3-diphenyl-1H-pyrazole-4-carboxylic acid] | 33 | > 64 | > 64 | > 64 | > 64 | > 64 | antikinetoplastid activity, in words [10]: inactive
O=C(/C=C/c1ccc(Cl)c(Cl)c1)c1ccc(NC(=O)c2cn(-c3ccccc3)nc2-c2ccccc2)cc1 [Compound 9j, (E)-N-(4-(3-(3,4-dichlorophenyl)acryloyl)phenyl)-1,3-diphenyl-1H-pyrazole-4-carboxamide] | 22.3 | > 64 | 4.63 | 4.52 | 46.1 | > 64 | melting point: 200 to 201 °C
O=C(/C=C/c1ccc2c(c1)OCO2)c1ccc(NC(=O)c2cn(-c3ccccc3)nc2-c2ccccc2)cc1 [Compound 9n, (E)-N-(4-(3-(benzo[d][1,3]dioxol-5-yl)acryloyl)phenyl)-1,3-diphenyl-1H-pyrazole-4-carboxamide] | 64 | > 64 | 3.44 ± 2.88 | 0.46 ± 0.07 | > 64 | > 57.4 | cytotoxicity against human lung fibroblasts (MRC-5), in words [1]: non-cytotoxic; cytotoxicity against primary mouse macrophages (PMMs), in words [2]: non-cytotoxic; melting point: 182 to 183 °C
COc1cccc(/C=C/C(=O)c2ccc(NC(=O)c3cn(-c4ccccc4)nc3-c3ccccc3)cc2)c1 [Compound 9c, (E)-N-(4-(3-(3-methoxyphenyl)acryloyl)phenyl)-1,3-diphenyl-1H-pyrazole-4-carboxamide] | 10.7 | – | – | – | – | – | CC50 at 3 days [9]: 10.7 µM
O=C(/C=C/c1ccccc1Cl)c1ccc(NC(=O)c2cn(-c3ccccc3)nc2-c2ccccc2)cc1 [Compound 9f, (E)-N-(4-(3-(2-chlorophenyl)acryloyl)phenyl)-1,3-diphenyl-1H-pyrazole-4-carboxamide] | > 64 | > 64 | 0.6 ± 0.33 | 0.81 ± 0.09 | 13.4 ± 4.95 | 18.7 ± 9.18 | –
O=C(/C=C/c1ccc(F)cc1)c1ccc(NC(=O)c2cn(-c3ccccc3)nc2-c2ccccc2)cc1 [Compound 9i, (E)-N-(4-(3-(4-fluorophenyl)acryloyl)phenyl)-1,3-diphenyl-1H-pyrazole-4-carboxamide] | > 64 | > 64 | 0.78 ± 0.26 | 1.12 ± 0.74 | > 54.2 | > 37.4 | –
COc1ccc(/C=C/C(=O)c2ccc(NC(=O)c3cn(-c4ccccc4)nc3-c3ccccc3)cc2)cc1 [Compound 9d, (E)-N-(4-(3-(4-methoxyphenyl)acryloyl)phenyl)-1,3-diphenyl-1H-pyrazole-4-carboxamide] | > 64 | > 64 | 1.64 ± 0.12 | 0.69 ± 0.31 | > 64 | 31.8 ± 19.1 | melting point: 174 to 175 °C
CCCCCCCCCCCCCCCCOP(=O)([O-])OCC[N+](C)(C)C [Miltefosine, reference compound] | – | – | – | – | – | 7.13 | –
O=C(/C=C/c1ccc(Br)cc1)c1ccc(NC(=O)c2cn3ccccc3n2)cc1 [VI] | – | – | – | – | – | – | IC50 [11]: 1.13 µM
O=C(C=Cc1ccccc1)c1ccc(NC(=O)c2cn(-c3ccccc3)nc2-c2ccccc2)cc1 [Compound 9a, N-(4-cinnamoylphenyl)-1,3-diphenyl-1H-pyrazole-4-carboxamide] | > 64 | 32 | 0.77 ± 0.27 | 0.96 ± 0.49 | > 53.2 | 7.16 ± 1.88 | cytotoxicity against human lung fibroblasts (MRC-5), in words [1]: non-cytotoxic; cytotoxicity against primary mouse macrophages (PMMs), in words [2]: non-cytotoxic; melting point: 160 to 161 °C
Cc1ccccc1/C=C/C(=O)c1ccc(NC(=O)c2cn(-c3ccccc3)nc2-c2ccccc2)cc1 [Compound 9b, (E)-1,3-diphenyl-N-(4-(3-(o-tolyl)acryloyl)phenyl)-1H-pyrazole-4-carboxamide] | > 64 | > 36 | 0.51 ± 0.06 | 0.54 ± 0.24 | > 64 | 18.7 ± 9.18 | cytotoxicity against human lung fibroblasts (MRC-5), in words [1]: non-cytotoxic; cytotoxicity against primary mouse macrophages (PMMs), in words [2]: non-cytotoxic
O=C(/C=C/c1cccnc1)c1ccccc1Br [IV] | – | – | – | – | – | – | IC50 [12]: 0.38 µM
Cc1ccc(-n2cc(/C=C/C(=O)c3cccs3)c(-c3ccccc3)n2)cc1 [II] | – | – | – | – | – | – | EC50 against promastigotes of L. aethiopica ([13]; ref Bekhit et al. [2014]): 0.079 µg/mL
CC(=O)C(C1=NN(C(C)=O)C(c2cn(-c3ccc(Br)cc3)nc2-c2ccc([N+](=O)[O-])cc2)S1)c1ccccc1 (stereo not drawn) [III] | – | – | – | – | – | – | IC50 against promastigotes of L. aethiopica ([13]; ref Bekhit et al. [2015]): 0.0142 µg/mL; IC50 against amastigotes of L. aethiopica [14]: 0.13 µg/mL
O=C(/C=C/c1cccnc1)c1ccc(NC(=O)c2cn(-c3ccccc3)nc2-c2ccccc2)cc1 [Compound 9m, (E)-1,3-diphenyl-N-(4-(3-(pyridin-3-yl)acryloyl)phenyl)-1H-pyrazole-4-carboxamide] | 0.26 | – | – | – | – | – | CC50 at 3 days [9]: 0.26 µM; melting point: 198 to 199 °C
CC(=O)c1ccc(NC(=O)c2cn(-c3ccccc3)nc2-c2ccccc2)cc1 [Compound 7, N-(4-acetylphenyl)-1,3-diphenyl-1H-pyrazole-4-carboxamide] | 14.4 | > 64 | > 64 | > 64 | > 64 | > 64 | melting point: 149 to 150 °C; antikinetoplastid activity, in words [10]: inactive
O=[N+]([O-])c1ccc(N/N=C/c2cnn(-c3ccc(Br)cc3)c2)cc1 [I] | – | – | – | – | – | – | IC50 [15]: 50 µM
O=C(Cn1ccnc1[N+](=O)[O-])NCc1ccccc1 [Benznidazole, reference compound] | – | – | – | – | 1.35 | – | –
O=C(/C=C/c1cccc([N+](=O)[O-])c1)c1ccc(NC(=O)c2cn(-c3ccccc3)nc2-c2ccccc2)cc1 [Compound 9k, (E)-N-(4-(3-(3-nitrophenyl)acryloyl)phenyl)-1,3-diphenyl-1H-pyrazole-4-carboxamide] | 19.4 | > 64 | 6.69 | 8.22 | > 64 | 45.2 | –
